We go through two molecules from patent US20240150363A1, “COELENTERAZINE ANALOGUES” (Promega Corporation, priority 2022, published 2024).

Series [1] can be described thus: Systematic stability study of formulated Compound 6 reconstitution in buffers, LC-MS. The series is classed as physicochemical. The procedure: In addition to the stability experiments in Example 3, an additional systematic, controlled, and comprehensive stability study was conducted to evaluate the stability of formulated Compound 6 in various buffer formulation. Briefly, 4.2 μmol of Compound 6 was reconstituted in 1 mL of each buffer at the concentration and pH outlined in Table 1. Concentration and purity were determined by LC-MS. Briefly, 1 μL of sample was injected into an Eclipse RRHD C8 (50×2; 1 mm; 1.8 micron; λ=254 nm) with an aqueous mobile phase of 0.1% TFA in Nanopure water and an organic mobile phase of acetonitrile.

A short description of series [2]: Stability of formulated Compound 6 (P-407 cake) in reconstitution buffers, LC-MS. It counts as physicochemical. As to the method: Experiments were conducted during development of embodiments herein to evaluate the stability of Compound 6 in various reconstitution buffer formulation. Briefly, 12 mg of Poloxamer 407 (P-407) was melted at 70˜75° C., and 4.2 μmol of Compound 6 was dissolved in 1 mL EtOH, followed by transferring the resulting solution to the melted P-407. The resulting mixture was rotated at 65˜75° C. to afford a homogeneous solution. The resulting solution was concentrated in vacuo and resuspended in 6 ml MQ water. 1 mL aliquots of the resuspended Compound 6 was then distributed into sample vials, frozen, and lyophilized to afford a formulated cake. Sample formulated cakes were then reconstituted in DPBS, HEPES, or Tris (pH 6.5, 7.5, or 8.0) buffers. Stability and purity were determined by LC-MS.

Series [3] concerns the target T1, NLuc-HaloTag fusion (Oplophorus gracilirostris, UniProt Q9GV45, A31E/A60N/A81I/F95D/I117V/K70R/L54V/L99Q/M102K/N193R/P142E/Q151K/Q38R/Q45L/V71I/Y165I).
T1 construct: HaloTag (fusion partner)
The series is described as follows: Bioluminescence of HeLa cells transiently expressing NLuc-HaloTag fusion. The conditions noted are these: substrate 10 μM, 1 min, compared to Furimazine and FluoroFurimazine. It counts as cell-based. As to the method: (§1) Additional experiments were conducted during development of embodiments herein to evaluate the influence of Furimazine analogs on the intensity of bioluminescence produced by transiently expressed NLuc-HaloTag fusion or chimera (i.e., HT178-cpNLuc-179, generated by insertion of cpNLuc into HaloTag). Briefly, HeLa cells diluted to 2.2×10^5 cells/mL in OptiMEM+2% serum were transfected with DNA encoding either NLuc-HaloTag fusion or chimera, plated in 96-well at 90 μL/well, and incubated overnight at 37° C.+5% CO2. Next day, cells were treated with substrate at a final concentration of 10 μM and incubated for 1 min before measurements of total bioluminescence on a GloMax® Discover plate reader (Promega; n=3) or measurements of bioluminescence intensity across 400-600 nm on an Infinite M1000 plate reader (Tecan; n=1).

Series [4] concerns chimera (HT178-cpNLuc-179). The series can be described thus: Total bioluminescence of purified chimera with substrate. It counts as biochemical. Particulars: purified chimera 6 nM, substrate 20 μM, 1 min; compared to Furimazine and FluoroFurimazine. As to the method:
(§2) Experiments were conducted during development of embodiments herein to evaluate the influence of Furimazine analogs on the intensity of bioluminescence produced by either purified NLuc-HaloTag fusion or purified chimera (i.e., HT178-cpNLuc-179, generated by insertion of cpNLuc into HaloTag). Briefly, purified NLuc-HaloTag fusion or chimera was diluted in TBS+0.1% BSA to a final concentration of 6 nM, treated with substrate at a final concentration of 20 μM, and incubated for 1 min before measurements of total bioluminescence on a GloMax® Discover plate reader (Promega; n=3) or measurements of bioluminescence intensity across 400-600 nm on an Infinite M1000 plate reader (Tecan; n=1).

Series [5] has as its system chimera (HT178-cpNLuc-179). The series can be described thus: Bioluminescence of HeLa cells transiently expressing chimera. The series is classed as cell-based. Particulars: substrate 10 μM, 1 min, compared to Furimazine and FluoroFurimazine. The procedure: as §1
The target of series [6] is T1, NLuc-HaloTag fusion. The series is described as follows: Total bioluminescence of purified NLuc-HaloTag fusion with substrate. Particulars: purified NLuc-HaloTag fusion 6 nM, substrate 20 μM, 1 min; compared to Furimazine and FluoroFurimazine. The series is classed as biochemical. As to the method: as §2
The mark [7] stands for this setting: reconstituted using glycerol (2%).

T1 sequence (Q9GV45 other isoform, or with tags, fused parts or gaps with the stated changes): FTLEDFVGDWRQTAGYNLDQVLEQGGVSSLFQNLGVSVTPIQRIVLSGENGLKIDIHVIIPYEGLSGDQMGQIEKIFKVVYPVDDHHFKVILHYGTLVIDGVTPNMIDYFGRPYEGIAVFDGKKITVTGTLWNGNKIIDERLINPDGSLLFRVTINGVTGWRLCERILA

Turning to `O=c1c(Cc2ccco2)nc2c(Cc3ccccc3F)[nH]c(-c3cccc(F)c3F)cn1-2` [Compound 6, 6-(2,3-difluorophenyl)-8-(2-fluorobenzyl)-2-(furan-2-ylmethyl)imidazo[1,2-a]pyrazin-3(7H)-one], the “preservation based on purity and concentration data” value in series [1] (in Tris (pH=8) buffer), in series [1] (in saline) and in series [1] (in water) was “well-preserved” throughout. Moreover, the precipitation / solubility entry in series [1] (reconstituted using DPBS (pH 7.0)), in series [1] (reconstituted using Tris (pH=6.5)), in series [1] (reconstituted using bicarbonate (pH 9.5)) and in series [1] (setting [7]) was “visible precipitation” in each case. The “purity over a 6-hour period” value in series [1] (reconstituted using Tris (pH=8)), in series [1] (reconstituted using acetate (sodium acetate pH 5.2)), in series [1] (reconstituted using citrate (pH 6.0)), in series [1] (setting [7]), in series [1] (reconstituted using saline (0.9%)) and in series [1] (reconstituted using water) was “greater than 90%” in each case. Further, in series [2] (reconstituted in DPBS), the stability and purity result is “lowest stability and purity”. Moreover, the “purity after 3 h” value in series [2] (reconstituted in HEPES) is listed as “about 50%”; in series [2] (reconstituted in Tris buffer), approximately 90%. The stability result in series [2] (reconstituted in HEPES) is given as “improved stability compared to DPBS”; in series [2] (reconstituted in Tris buffer), “highest stability”.

As for `Cc1ccc(Cc2nc3c(Cc4ccccc4F)[nH]c(-c4cccc(F)c4F)cn-3c2=O)o1` [Compound 10, 6-(2,3-difluorophenyl)-8-(2-fluorobenzyl)-2-((5-methylfuran-2-yl)methyl)imidazo[1,2-a]pyrazin-3(7H)-one], the “bioluminescence signal as a substrate” value in series [3], in series [4], in series [5] and in series [6] was “significantly brighter signal” in each case.
